Results on 9 compounds are retold here after publication PMC10128460, “Discovery of the first-in-class potent and isoform-selective human carbonic anhydrase III inhibitors” (Journal of Enzyme Inhibition and Medicinal Chemistry, 2023).

SMILES strings stand for the structures. Several values for one entry are separate records, joined by “and”; a condition that tells them apart may be missing. Identical values can stand only once. Like-named read-outs stand apart in the source and are kept apart here. A value given as a limit tells only on which side of the number the result lay.

One series deals with T1, hCA VA (Homo sapiens, UniProt P35218).
T1 construct: made in house
T1 sequence (P35218 39-305): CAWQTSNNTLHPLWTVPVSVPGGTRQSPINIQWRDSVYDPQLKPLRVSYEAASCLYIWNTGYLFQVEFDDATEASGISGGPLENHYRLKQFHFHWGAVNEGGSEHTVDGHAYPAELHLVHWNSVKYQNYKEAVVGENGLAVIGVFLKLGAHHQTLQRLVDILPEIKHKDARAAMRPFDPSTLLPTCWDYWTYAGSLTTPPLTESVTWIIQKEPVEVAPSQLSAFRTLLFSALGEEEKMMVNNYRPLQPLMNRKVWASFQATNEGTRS
Kind of series: Stopped-Flow CO2 hydrase assay, hCA VA. It is filed as biochemical.

Another series concerns the target T2, hCA VII (Homo sapiens, UniProt P43166).
T2 construct: made in house
Kind of series: Stopped-Flow CO2 hydrase assay, hCA VII. It is filed as biochemical. Particulars: mean from 3 assays, errors ± 5–10%.

The next series concerns the target T3, hCA II (Homo sapiens, UniProt P00918).
T3 construct: made in house
Kind of series: Stopped-Flow CO2 hydrase assay, hCA II. It is filed as biochemical. The following applies: mean from 3 assays, errors ± 5–10%.

Another series has as its target T4, hCA VB (Homo sapiens, UniProt Q9Y2D0).
T4 construct: made in house
Kind of series: Stopped-Flow CO2 hydrase assay, hCA VB. Particulars: mean from 3 assays, errors ± 5–10%. The class given is biochemical.

For series [1], the target named is T5, hCA III (Homo sapiens, UniProt P07451).
T5 construct: made in house
T5 sequence (P07451 whole entry): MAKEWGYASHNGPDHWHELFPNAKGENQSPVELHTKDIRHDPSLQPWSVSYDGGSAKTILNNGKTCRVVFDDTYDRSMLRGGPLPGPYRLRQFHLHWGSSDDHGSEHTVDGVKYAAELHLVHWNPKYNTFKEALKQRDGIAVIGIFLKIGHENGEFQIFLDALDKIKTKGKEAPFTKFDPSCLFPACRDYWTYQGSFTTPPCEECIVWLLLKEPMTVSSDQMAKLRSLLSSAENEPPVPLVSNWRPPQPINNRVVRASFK
The experiment in a line: Stopped-Flow CO2 hydrase assay, hCA III. It is filed as biochemical. Particulars: for Selectivity Index (SI) hCA I/hCA III: ratio of KI hCA I to KI hCA III; for Selectivity Index (SI) hCA II/hCA III: ratio of KI hCA II to KI hCA III; for Ki: stopped-flow CO2 hydrase, mean from 3 assays, errors ± 5–10%.
Method: (§1) An Applied Photophysics stopped-flow instrument has been used for assaying the CA catalysed CO2 hydration activity[47]. […] The CO2 concentrations ranged from 1.7 to 17 mM for the determination of the kinetic parameters and inhibition constants. […] The uncatalysed rates were determined in the same manner and subtracted from the total observed rates. Stock solutions of inhibitor (0.1 mM) were prepared in distilled − deionized water and dilutions up to 0.01 nM were done thereafter with the assay buffer. Inhibitor and enzyme solutions were preincubated together for 15 min at room temperature before assay to allow for the formation of the E − I complex. The inhibition constants were obtained by nonlinear least-squares methods using PRISM 3 and the Cheng − Prusoff equation, as reported earlier[48]^,[49], and represent the mean from at least three different determinations. […] All hCA isoforms were recombinant ones obtained in-house as reported earlier[50].

Another series addresses T6, hCA IV (Homo sapiens, UniProt P22748).
T6 construct: made in house
The experiment in a line: Stopped-Flow CO2 hydrase assay, hCA IV. The class given is biochemical. The following applies: mean from 3 assays, errors ± 5–10%.

The next series has as its target T7, hCA I (Homo sapiens, UniProt P00915).
T7 construct: made in house
Kind of series: Stopped-Flow CO2 hydrase assay, hCA I. Particulars: mean from 3 assays, errors ± 5–10%. It is filed as biochemical.

For a further series, the target named is T8, hCA XII (Homo sapiens, UniProt O43570).
T8 construct: made in house
T8 sequence (O43570 25-354): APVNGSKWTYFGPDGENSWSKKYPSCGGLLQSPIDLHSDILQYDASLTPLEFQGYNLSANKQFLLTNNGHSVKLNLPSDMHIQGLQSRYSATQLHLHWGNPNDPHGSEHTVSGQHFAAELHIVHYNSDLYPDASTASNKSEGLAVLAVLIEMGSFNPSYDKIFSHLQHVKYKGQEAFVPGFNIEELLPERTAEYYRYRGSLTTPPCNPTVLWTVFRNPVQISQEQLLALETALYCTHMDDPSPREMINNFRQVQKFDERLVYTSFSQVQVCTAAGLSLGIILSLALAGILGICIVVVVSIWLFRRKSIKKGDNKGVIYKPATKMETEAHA
Kind of series: Stopped-Flow CO2 hydrase assay, hCA XII. It is filed as biochemical. The following applies: mean from 3 assays, errors ± 5–10%.

Series [2] concerns the target T5, hCA III. Also on record: method as in PMID 23605884. Particulars: HPLC assay; cited from earlier work.
The mark [3] stands for this setting: stopped-flow CO2 hydrase, mean from 3 assays, errors ± 5–10%, read-out: KI hCA VA.

T4 sequence (Q9Y2D0 34-317): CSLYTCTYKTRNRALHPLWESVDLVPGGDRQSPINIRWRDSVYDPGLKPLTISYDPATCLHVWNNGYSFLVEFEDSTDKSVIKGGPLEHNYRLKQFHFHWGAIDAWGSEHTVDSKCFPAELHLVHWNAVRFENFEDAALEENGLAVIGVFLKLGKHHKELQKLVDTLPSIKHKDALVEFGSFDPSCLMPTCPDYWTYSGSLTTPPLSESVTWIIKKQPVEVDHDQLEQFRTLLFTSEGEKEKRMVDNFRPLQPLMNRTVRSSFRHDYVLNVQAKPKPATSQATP
T6 sequence (P22748 19-312): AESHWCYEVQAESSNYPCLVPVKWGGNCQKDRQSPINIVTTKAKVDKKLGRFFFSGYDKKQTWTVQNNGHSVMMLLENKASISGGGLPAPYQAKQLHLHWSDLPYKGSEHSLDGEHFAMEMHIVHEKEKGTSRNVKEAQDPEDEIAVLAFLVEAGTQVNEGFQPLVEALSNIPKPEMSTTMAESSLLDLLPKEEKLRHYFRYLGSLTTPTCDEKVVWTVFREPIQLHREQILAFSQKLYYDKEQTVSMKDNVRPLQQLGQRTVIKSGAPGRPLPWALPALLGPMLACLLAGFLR
T7 sequence (P00915 whole entry): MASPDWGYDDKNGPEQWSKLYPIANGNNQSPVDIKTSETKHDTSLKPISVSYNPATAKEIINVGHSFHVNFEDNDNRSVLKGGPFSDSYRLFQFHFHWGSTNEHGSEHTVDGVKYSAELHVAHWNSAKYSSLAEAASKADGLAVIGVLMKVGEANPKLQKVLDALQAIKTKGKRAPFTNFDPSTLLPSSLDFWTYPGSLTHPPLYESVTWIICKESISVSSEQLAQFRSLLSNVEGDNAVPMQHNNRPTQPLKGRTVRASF
T2 sequence (P43166 whole entry): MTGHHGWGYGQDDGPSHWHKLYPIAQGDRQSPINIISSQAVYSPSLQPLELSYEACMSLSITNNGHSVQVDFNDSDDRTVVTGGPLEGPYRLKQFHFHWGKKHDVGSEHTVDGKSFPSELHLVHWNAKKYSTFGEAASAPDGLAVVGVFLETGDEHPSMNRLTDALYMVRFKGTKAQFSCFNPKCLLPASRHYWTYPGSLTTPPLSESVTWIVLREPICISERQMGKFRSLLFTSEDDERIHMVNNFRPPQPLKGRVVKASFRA
Method for hCA IV: as §1
Method for hCA VA: as §1
Method for hCA VB: as §1
Method for hCA VII: as §1
Method for hCA XII: as §1

`NS(=O)(=O)CCCCn1cc(COc2ccc(F)cc2)nn1` [Compound 41, 4–(4-((4-Fluorophenoxy)methyl)-1H-1,2,3-triazol-1-yl)butane-1-sulfonamide] yielded a melting point of 246 to 248 °C. Also, the inhibition constant Ki at hCA VA (setting [3]) was 4.39 µM. At hCA VII, this compound displayed an inhibition constant (Ki) of 5.33 µM. The affinity at hCA II corresponds to a Ki of 8.13 µM. The compound further yielded a Ki on hCA VB of 1.24 µM. In addition, at hCA III [1], the “Selectivity Index (SI) hCA I/hCA III” value came out at 10.4; the “Selectivity Index (SI) hCA II/hCA III” value was 13.14 and 13.1; the Ki was 0.618 µM. In addition, on hCA IV, the affinity, expressed as Ki, was 5.51 µM. The compound also displayed a Ki on hCA I of 6.43 µM. On hCA XII, this compound returned an inhibition constant Ki of 2.1 µM.
`COc1ccc(OCc2cn(CCCCS(N)(=O)=O)nn2)cc1` [Compound 42, 4–(4-((4-Methoxyphenoxy)methyl)-1H-1,2,3-triazol-1-yl)butane-1-sulfonamide] displayed a melting point of 251 to 253 °C. Besides, the Ki on hCA VA (setting [3]) amounted to 6.04 µM. In addition, the affinity at hCA VII corresponds to a Ki of 5.3 µM. Also, the Ki on hCA II was found to be 3.93 µM. At hCA VB, this compound yielded an inhibitory constant (Ki) of 6.67 µM. Further, at hCA III [1], the “Selectivity Index (SI) hCA II/hCA III” value worked out at 5.8 and the inhibition constant Ki came out at 0.676 µM. The compound also returned a Ki on hCA IV of 5.61 µM. The compound further returned a Ki at hCA I of 8.54 µM. For the same compound, the Ki at hCA XII was 3.07 µM.
Compound `COc1cccc(OCc2cn(CCCCS(N)(=O)=O)nn2)c1` [Compound 43, 4–(4-((3-Methoxyphenoxy)methyl)-1H-1,2,3-triazol-1-yl)butane-1-sulfonamide] gave a melting point of 186 to 188 °C. Besides, on hCA VA (setting [3]), the inhibitory constant (Ki) amounted to 2.17 µM. The same compound gave a Ki at hCA VII of 3.65 µM. Besides, the Ki at hCA II was 5.97 µM. The Ki at hCA VB turned out to be 1.63 µM. In addition, at hCA III [1], the “Selectivity Index (SI) hCA I/hCA III” value was determined as 5.2; the “Selectivity Index (SI) hCA II/hCA III” value is 13.44 and 13.4; the inhibition constant Ki stood at 0.444 µM. Moreover, the affinity on hCA IV, expressed as Ki, was 8.27 µM. On hCA I, this compound gave a Ki of 2.32 µM. Further, the Ki on hCA XII was determined as 2.72 µM.
Compound `NS(=O)(=O)CCCCn1cc(CNC(=O)Nc2ccc(F)cc2)nn1` [Compound 44, 4–(4-((3–(4-Fluorophenyl)ureido)methyl)-1H-1,2,3-triazol-1-yl)butane-1-sulfonamide] came in with a melting point of 284 to 286 °C. This compound displayed a Ki at hCA VA of 1.35 µM. Further, affinity on hCA VII was put at a Ki of 3.35 µM. Moreover, the Ki at hCA II was 7.58 µM. The affinity at hCA VB, expressed as Ki, was 2.55 µM. In addition, on hCA III [1], the “Selectivity Index (SI) hCA I/hCA III” value worked out at 9.0; the “Selectivity Index (SI) hCA II/hCA III” value is 12.66 and 12.7; the inhibition constant (Ki) was determined as 0.599 µM. Besides, on hCA IV, the affinity, expressed as Ki, was 2.92 µM. For the same compound, the Ki on hCA I worked out at 5.38 µM. Besides, the affinity on hCA XII, expressed as Ki, was 3.71 µM.
In the case of `Cc1ccc(NC(=O)NCc2cn(CCCCS(N)(=O)=O)nn2)cc1` [Compound 45, 4–(4-((3-(p-Tolyl)ureido)methyl)-1H-1,2,3-triazol-1-yl)butane-1-sulfonamide], the melting point is 271 to 272 °C. The Ki at hCA VA (setting [3]) was determined as 3.34 µM. The compound also returned a Ki at hCA VII of 5.64 µM. In addition, the Ki on hCA II was 4.93 µM. On hCA VB, this compound yielded an inhibition constant (Ki) of 8.11 µM. Moreover, at hCA III [1], the “Selectivity Index (SI) hCA I/hCA III” value came out at 5.7, the “Selectivity Index (SI) hCA II/hCA III” value is given as 5.3 and the affinity corresponds to a Ki of 0.93 µM. Affinity at hCA IV was put at a Ki of 5.74 µM. Moreover, the inhibition constant Ki on hCA I was determined as 5.3 µM. At hCA XII, this compound came in with a Ki of 6.73 µM.
In turn, `NS(=O)(=O)CCCCn1cc(CNC(=O)Nc2ccc(C(F)(F)F)cc2)nn1` [Compound 46, 4–(4-((3–(4-(Trifluoromethyl)phenyl)ureido)methyl)-1H-1,2,3-triazol-1-yl)butane-1-sulfonamide] gave a melting point of more than 300 °C. For the same compound, the inhibitory constant (Ki) on hCA VA (setting [3]) is 1.8 µM. For the same compound, the affinity on hCA VII corresponds to a Ki of 3.61 µM. Besides, the affinity at hCA II corresponds to a Ki of 0.879 µM. Further, at hCA VB, the affinity corresponds to a Ki of 5.87 µM. In addition, on hCA III [1], the “Selectivity Index (SI) hCA I/hCA III” value turned out to be 9.7; the “Selectivity Index (SI) hCA II/hCA III” value was determined as 1.6; the affinity, expressed as Ki, was 0.553 µM. At hCA IV, this compound had an inhibition constant Ki of 3.59 µM. At hCA I, this compound showed a Ki of 5.39 µM. Moreover, the inhibitory constant (Ki) at hCA XII amounted to 2.63 µM.
`CCOC(=O)c1ccc(NC(=O)NCc2cn(CCCCS(N)(=O)=O)nn2)cc1` [Compound 47, Ethyl 4–(3-((1–(4-sulfamoylbutyl)-1H-1,2,3-triazol-4-yl)methyl)ureido)benzoate] returned a melting point of 259 to 261 °C. Besides, the Ki on hCA VA (setting [3]) was found to be 3.82 µM. At hCA VII, this compound registered a Ki of 1.95 µM. Besides, the affinity on hCA II corresponds to a Ki of 0.566 µM. Further, the affinity on hCA VB, expressed as Ki, was 1.43 µM. Also, at hCA III [1], the “Selectivity Index (SI) hCA I/hCA III” value worked out at 13.2; the “Selectivity Index (SI) hCA II/hCA III” value was 1.15 and 1.1; affinity was put at a Ki of 0.493 µM. Moreover, the affinity on hCA IV, expressed as Ki, was 2.6 µM. Also, the Ki on hCA I turned out to be 6.52 µM. For the same compound, the affinity at hCA XII corresponds to a Ki of 2.83 µM.
`COc1cccc(NC(=O)NCc2cn(CCCCS(N)(=O)=O)nn2)c1` [Compound 48, 4–(4-((3–(3-Methoxyphenyl)ureido)methyl)-1H-1,2,3-triazol-1-yl)butane-1-sulfonamide] gave a melting point of 217 to 218 °C. On hCA VA (setting [3]), the Ki was 4.16 µM. This compound returned a Ki at hCA VII of 3.9 µM. The compound further came in with an inhibition constant Ki on hCA II of 4.61 µM. On hCA VB, the inhibition constant Ki was determined as 1.14 µM. On hCA III [1], the “Selectivity Index (SI) hCA I/hCA III” value worked out at 11.6, the “Selectivity Index (SI) hCA II/hCA III” value worked out at 9.7 and affinity was put at a Ki of 0.476 µM. On hCA IV, this compound gave an inhibitory constant (Ki) of more than 10 µM. In addition, at hCA I, affinity was put at a Ki of 5.52 µM. For the same compound, the affinity on hCA XII, expressed as Ki, was 4.66 µM.
Turning to `COc1cc(C(=O)O)ccc1O` [vanillic acid], at hCA III [2], the inhibition constant (Ki) is 87 µM.

What is called melting point is the temperature, or range, at which the solid turns liquid. A word on the Ki: it is the equilibrium dissociation constant of an inhibitor or competing ligand from its target.
